These results are taken from US4568691A, “Anti-inflammatory esters of 4-(1-hydroxy-2-[(acylamino)-alkylamino]-ethyl)-phenol derivatives, compositions, and method of use therefor” (Imperial Chemical Industries, PLC, priority 1981, dated 1986).

In experiment [1] the test system is croton oil induced inflammation on the mouse ear. Kind of experiment: effect of repeated topical application on anti-inflammatory properties in the croton oil induced inflammation test. It counts as in vivo, albino mouse (Alderley Park Strain). The following applies: single application immediately after croton oil; rate approximately 4 × IC50.
The test system is the same in experiment [2]. Kind of experiment: croton oil induced inflammation test on the mouse ear, single topical application. It counts as in vivo, albino mouse (Alderley Park Strain). Conditions: 4 hours after croton oil. The protocol:
A 4% v/v solution of croton oil in (acetone) was prepared. A portion (10 μl.) of this solution was applied to the right ear of an albino mouse (Alderley Park Strain, specific pathogen free). This was followed by immediate application of a portion (10 μl.) of a solution of test compound in ethanol to the same ear of the mouse. This procedure was repeated for a total of ten mice.
After 4 hours the mice were sacrificed and both ears from each mouse were removed and weighed. The increase in weight of the right over the left ear for each mouse was then determined and an average obtained for the group as a whole. […] The percentage inhibition of croton oil induced inflammation was then calculated for the test compound.

Experiment [3] shares this test system. Kind of experiment: effect of repeated topical application on anti-inflammatory properties in the croton oil induced inflammation test. It counts as in vivo, albino mouse (Alderley Park Strain). The following applies: for Percentage reduction in croton oil induced inflammation, Four Applns: four applications (3, 2, 1 day before and immediately after croton oil), rate approximately 4 × IC50. From the text: (b) An indication of the effect of repeated topical application of a test compound on its anti-inflammatory properties was obtained as follows:
first application received 3 days before croton oil;
second application received 2 days before croton oil;
third application received 1 day before croton oil; and
fourth application received immediately after croton oil.

Experiment [4] has the same test system. Conditions: known from earlier patent publications (UK 1591618); cited from earlier work.

Turning to `CC(C)(CNC(=O)c1ccoc1)NCC(O)c1ccc(OC(=O)C(C)(C)C)c(OC(=O)C(C)(C)C)c1` (centres unmarked) [Example 3-furyl], the “Percentage reduction in croton oil induced inflammation, Single Appln” value (“Percentage reduction … Single Appln” for short) in experiment [1] worked out at 65%. Also, in experiment [2], the “IC50 (amount of test compound per ear which inhibited the inflammation by 50%)” value was determined as 2 μg/ear. The “Percentage reduction in croton oil induced inflammation, Four Applns” value (“Percentage reduction … Four Applns” for short) in experiment [3] is given as 45%.
The like results for `CC(C)(CNC(=O)c1cccs1)NCC(O)c1ccc(OC(=O)C(C)(C)C)c(OC(=O)C(C)(C)C)c1` (centres unmarked) [Example 2-thienyl] were, in that order, 71%, 7 μg/ear and 33%.
The like results for `CC(C)(CNC(=O)c1cc(Cl)ccn1)NCC(O)c1ccc(OC(=O)C(C)(C)C)c(OC(=O)C(C)(C)C)c1` (centres unmarked) [4-chloro-2-pyridyl] were, in that order, 68%, 7 μg/ear and 33%.
Taken in the same sequence, the figures for `CC(C)(CNC(=O)c1ccco1)NCC(O)c1ccc(OC(=O)C(C)(C)C)c(OC(=O)C(C)(C)C)c1` (centres unmarked) [Example 7, 4-(1-hydroxy-2-[2-(2-furylcarboxyamido)-1,1-dimethyl-ethylamino]ethyl)catechol dipivaloyl ester] were 60%, 13 μg/ear and 64%.
`CC(C)(CNCC(O)c1ccc(OC(=O)C(C)(C)C)c(OC(=O)C(C)(C)C)c1)NC(=O)COc1ccccc1` (centres unmarked) [phenoxymethyl, 4-(1-hydroxy-2-[2-methyl-2-(phenoxyacetamido)-propylamino]ethyl)catechol dipivaloyl ester]: the “Percentage reduction … Single Appln” value in experiment [1] is 60%. Also, in experiment [2], the “IC50 (amount of test compound per ear which inhibited the inflammation by 50%)” value came to 2.5 μg/ear. Moreover, the topical anti-inflammatory properties entry in experiment [4] was “potent topical anti-inflammatory properties”. Besides, the “Percentage reduction … Four Applns” value in experiment [3] turned out to be 23%. Besides, in experiment [3] (two or more / several topical applications spaced over several days), the “reduction in topical anti-inflammatory properties after repeated topical applications” value is given as “significant reduction in topical anti-inflammatory properties”.
On to `CC(C)(CNC(=O)c1cc2ccccc2o1)NCC(O)c1ccc(OC(=O)C(C)(C)C)c(OC(=O)C(C)(C)C)c1` (centres unmarked) [Example 8, 4-(1-hydroxy-2-[1,1-dimethyl-2-(2-benzo[b]furyl-carboxamido)ethylamino]ethyl)catechol dipivaloyl ester], for which the “Percentage reduction … Single Appln” value in experiment [1] worked out at 61%. Moreover, the “IC50 (amount of test compound per ear which inhibited the inflammation by 50%)” value in experiment [2] turned out to be 11 μg/ear. The “Percentage reduction … Four Applns” value in experiment [3] stood at 59%.
Regarding `CC(C)(CNC(=O)c1cc2ccccc2s1)NCC(O)c1ccc(OC(=O)C(C)(C)C)c(OC(=O)C(C)(C)C)c1` (centres unmarked) [Example 9, 4-(1-hydroxy-2-[1,1-dimethyl-2-(2-benzo[b]thienylcarboxamido)ethylamino]ethyl)catechol dipivaloyl ester], the “Percentage reduction … Single Appln” value in experiment [1] is 64%. Besides, the “IC50 (amount of test compound per ear which inhibited the inflammation by 50%)” value in experiment [2] worked out at 23 μg/ear. The “Percentage reduction … Four Applns” value in experiment [3] is 65%.
